pEC50: −log10 of the molar value.
Target: T1, HM74A (Homo sapiens, UniProt Q8TDS4)
T1 construct: expressed in transfected cells; host or cells: HEK-293, stably transfected (pcDNA3.1 vectors), co-expressing chimeric G protein Gqi9
Test: Secondary fluorescent calcium indicator assay (FLIPR)
Type: cell-based
Conditions: stable transfected HEK-293 cells expressing HM74A and chimeric G protein Gqi9
Experimental: Secondary Fluorescent Calcium Indicator Assay (FLIPR)
HEK-293 cells were grown in tissue culture medium (DMEM/Nut mix F12 Medium with Glutamax I (Invitrogen), containing 10% FBS) at 37° C. in a 5% CO2 atmosphere. These cells were cultured in 6-well dishes at 3×10^5 cells/well and double transfected with DNA vectors (pcDNA3.1, Invitrogen) expressing either HM74A or HM74 and the chimeric G protein Gqi9. Two days after transfection the wells were combined and plated in 150 cm^2 flasks, in the presence of 50 μg/ml Hygromycin (Invitrogen) and 500 μg/ml Geneticin (Gibco). Fourteen days after plating, colonies were picked, expanded and analyzed for expression using a functional assay (FLIPR). Stable transfected HEK-293 cells expressing either HM74A or HM74 and the chimeric G protein Gqi9 were plated at 50,000 cells/well in black 96-well plates with clear bottom (Costar) and cultured to confluency overnight in growth media (DMEM/Nut mix F12 Medium with Glutamax I (Invitrogen), containing 10% FBS) at 37° C. in a humidified cell incubator containing 5% CO2. Growth media was aspirated and replaced with 100 μl of 1× FLIPR Calcium Assay Dye (Molecular Devices) in Hank's balanced salt solution (HBSS) containing 10 mM HEPES, and […] probenecid (Sigma), for 1 hour at 37° C. Cell plates were transferred to a FLIPR unit (Molecular Devices), and 50 μl of 3× compound dilution were added. Fluorescence emissions were measured and the effects of compounds were expressed as % stimulation of maximal nicotinic acid response (100 μM). Sigmoidal curves were fitted using the XLfit3 program (ID Business Solutions Ltd. UK) and EC50 values determined.

T1 sequence (Q8TDS4 whole entry): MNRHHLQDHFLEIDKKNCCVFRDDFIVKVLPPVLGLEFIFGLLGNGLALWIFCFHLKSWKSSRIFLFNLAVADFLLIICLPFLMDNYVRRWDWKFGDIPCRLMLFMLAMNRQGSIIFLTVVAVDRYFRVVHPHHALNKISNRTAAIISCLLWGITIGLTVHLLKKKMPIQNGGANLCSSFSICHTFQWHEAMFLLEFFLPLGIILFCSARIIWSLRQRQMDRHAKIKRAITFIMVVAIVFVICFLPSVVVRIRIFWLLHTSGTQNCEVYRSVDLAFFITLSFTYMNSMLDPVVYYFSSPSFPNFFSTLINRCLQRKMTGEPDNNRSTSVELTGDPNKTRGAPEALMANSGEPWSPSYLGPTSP

pEC50 | Compound
5.24 | O=c1[nH]c(COc2ccccc2)nc2ncccc12 [Example 2, 2-Phenoxymethyl-3H-pyrido[2,3-d]pyrimidin-4-one]
5.57 | COc1ccc(CCCOc2nc3ncccc3c(=O)[nH]2)cc1 [Example 28, 2-[3-(4-Methoxy-phenyl)-propoxy]-3H-pyrido[2,3-d]pyrimidin-4-one]
6.37 | Cc1ccccc1OCCCOc1nc2ncccc2c(=O)[nH]1 [Example 58, 2-(3-o-Tolyloxy-propoxy)-3H-pyrido[2,3-d]pyrimidin-4-one]

Source: patent US7572801B2, “Pyridopyrimidinone derivatives which are HM74A agonists” (Hoffmann-La Roche Inc., priority 2007, dated 2009)
